# Experiments:
# Format in all cases: cell-based
# Phospho-Rb (Ser807/811) = test: Phospho-Retinoblastoma (pRB) Cellular Assay; conditions: Homo sapiens, OVCAR-3, NIH OVCAR3 cells, 24 hours; for IC50: concentration giving 50% response; for Emax: maximum response, reference compound at 10 μM = 100%, read-out: pRB Ymax
# In short: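 OVCAR3 cells seeded overnight, then dosed with serial dilutions for 24 h at 37° C. Lysed with kit mix plus phosphatase inhibitor, ≥4 h at room temperature, read on EnVision; 100% response set by reference compound at 10 μM, giving IC50 and Ymax.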
# GSPT1 = GSPT1 (Homo sapiens, UniProt P15170+Q96SW2); test: GSPT1 Cellular Degradation Assay (DF15-GSPT1-ePL); parameters: expressed in transfected cells; conditions: DF15-GSPT1-ePL cells, 20 hours
# In short: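 Human DF15 cells co-expressing a GSPT1–ePL fusion were treated with compound in RPMI 1640/10% FBS for 20 h at 37 °C. GSPT1 level was read by enzyme-fragment-complementation luminescence after 60 min with detection reagent. The reference degrader at […] defined 75% response; DC50 and Dmax were reported.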
# Cyclin E1 = Cyclin E1 (Homo sapiens, UniProt P24864+Q96SW2); test: Cyclin E1 Cellular Degradation Assay (MSD); parameters: endogenous in cells; host or cells: OVCAR3; conditions: for DC50 / Dmax: Cyclin E1 cellular degradation; for Dmax: maximum degradation; for Ratio of GSPT1 DC50/Cyclin E1 DC50: selectivity for degradation of Cyclin E1 over GSPT1
# In short: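 OVCAR3 cells treated with compound for 24 h at 37 °C, lysed, and cyclin E1 measured by MSD sandwich immunoassay (rabbit capture, mouse detection anti-CCNE1). Reference degrader at […] defined 110% response; DC50 and Dmax derived from response.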
# Chain of GSPT1 (P15170 whole entry, the tested form may be a part): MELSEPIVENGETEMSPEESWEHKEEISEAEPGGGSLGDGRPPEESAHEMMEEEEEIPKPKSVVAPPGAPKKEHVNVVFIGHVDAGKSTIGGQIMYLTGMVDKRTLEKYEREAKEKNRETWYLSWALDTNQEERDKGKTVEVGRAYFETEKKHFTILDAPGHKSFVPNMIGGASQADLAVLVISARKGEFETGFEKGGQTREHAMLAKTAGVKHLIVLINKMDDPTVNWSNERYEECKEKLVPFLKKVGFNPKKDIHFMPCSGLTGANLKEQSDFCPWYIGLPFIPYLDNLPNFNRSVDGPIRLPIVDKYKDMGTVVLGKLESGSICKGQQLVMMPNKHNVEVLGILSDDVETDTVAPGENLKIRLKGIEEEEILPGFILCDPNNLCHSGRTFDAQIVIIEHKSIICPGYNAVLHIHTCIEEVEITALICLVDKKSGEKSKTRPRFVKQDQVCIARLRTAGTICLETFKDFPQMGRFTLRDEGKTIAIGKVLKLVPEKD
# Chain of GSPT1 (Q96SW2 whole entry, the tested form may be a part): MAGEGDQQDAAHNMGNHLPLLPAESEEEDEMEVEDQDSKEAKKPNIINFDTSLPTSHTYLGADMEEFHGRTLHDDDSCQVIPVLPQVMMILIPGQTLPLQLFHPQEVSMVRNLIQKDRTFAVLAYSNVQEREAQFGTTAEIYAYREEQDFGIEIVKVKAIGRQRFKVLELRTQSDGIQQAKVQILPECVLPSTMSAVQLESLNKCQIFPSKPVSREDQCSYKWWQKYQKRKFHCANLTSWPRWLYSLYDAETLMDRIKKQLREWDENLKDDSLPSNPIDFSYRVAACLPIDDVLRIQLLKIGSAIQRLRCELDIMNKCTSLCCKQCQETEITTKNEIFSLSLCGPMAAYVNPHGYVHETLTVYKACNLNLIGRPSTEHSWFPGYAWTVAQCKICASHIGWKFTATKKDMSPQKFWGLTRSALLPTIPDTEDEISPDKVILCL
# Chain of GSPT1 (Q16531 whole entry partner, the tested form may be a part): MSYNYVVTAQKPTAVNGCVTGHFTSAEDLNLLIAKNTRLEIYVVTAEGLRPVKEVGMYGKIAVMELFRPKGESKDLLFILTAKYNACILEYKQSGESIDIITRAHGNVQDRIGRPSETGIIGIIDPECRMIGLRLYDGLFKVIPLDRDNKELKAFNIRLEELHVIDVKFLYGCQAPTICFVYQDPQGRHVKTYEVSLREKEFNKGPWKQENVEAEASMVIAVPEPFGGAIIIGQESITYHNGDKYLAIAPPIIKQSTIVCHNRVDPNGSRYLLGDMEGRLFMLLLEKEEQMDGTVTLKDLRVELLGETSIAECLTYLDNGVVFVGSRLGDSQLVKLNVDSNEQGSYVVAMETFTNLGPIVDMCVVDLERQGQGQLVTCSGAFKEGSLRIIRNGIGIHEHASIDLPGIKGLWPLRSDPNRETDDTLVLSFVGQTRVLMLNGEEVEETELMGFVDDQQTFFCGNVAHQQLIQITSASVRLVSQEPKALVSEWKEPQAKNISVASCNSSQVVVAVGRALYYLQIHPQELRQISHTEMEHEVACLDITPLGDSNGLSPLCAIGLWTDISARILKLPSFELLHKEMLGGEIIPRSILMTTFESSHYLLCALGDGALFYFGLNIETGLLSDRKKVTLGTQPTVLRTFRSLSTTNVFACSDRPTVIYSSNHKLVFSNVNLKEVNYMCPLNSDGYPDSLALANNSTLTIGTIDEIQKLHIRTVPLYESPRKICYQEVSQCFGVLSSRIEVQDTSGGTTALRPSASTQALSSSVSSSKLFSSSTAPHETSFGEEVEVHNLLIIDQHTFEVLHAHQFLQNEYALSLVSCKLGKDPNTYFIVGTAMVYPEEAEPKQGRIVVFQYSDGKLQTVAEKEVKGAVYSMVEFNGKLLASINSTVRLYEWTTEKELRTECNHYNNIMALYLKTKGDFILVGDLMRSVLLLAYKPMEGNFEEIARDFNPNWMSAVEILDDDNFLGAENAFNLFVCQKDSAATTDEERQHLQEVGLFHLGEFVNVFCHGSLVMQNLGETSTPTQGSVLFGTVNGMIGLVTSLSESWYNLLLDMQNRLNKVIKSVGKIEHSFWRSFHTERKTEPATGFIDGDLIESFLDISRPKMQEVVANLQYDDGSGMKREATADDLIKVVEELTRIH
# Chain of Cyclin E1 (P24864 whole entry): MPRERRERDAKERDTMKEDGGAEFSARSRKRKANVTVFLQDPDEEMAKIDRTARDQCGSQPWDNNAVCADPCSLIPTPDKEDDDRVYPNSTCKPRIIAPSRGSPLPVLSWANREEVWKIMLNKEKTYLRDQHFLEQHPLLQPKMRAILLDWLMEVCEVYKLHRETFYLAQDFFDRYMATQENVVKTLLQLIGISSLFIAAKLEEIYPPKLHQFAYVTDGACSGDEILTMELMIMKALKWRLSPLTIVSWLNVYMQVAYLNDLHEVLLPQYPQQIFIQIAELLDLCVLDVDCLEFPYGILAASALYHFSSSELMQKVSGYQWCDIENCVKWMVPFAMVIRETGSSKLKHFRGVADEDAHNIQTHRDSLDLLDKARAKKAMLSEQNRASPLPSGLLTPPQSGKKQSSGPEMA
# Chain of Cyclin E1 (Q96SW2 whole entry): as the sequence (Q96SW2 whole entry, the tested form may be a part) above
# Chain of Cyclin E1 (Q16531 whole entry partner): as the sequence (Q16531 whole entry partner, the tested form may be a part) above
Compound,IC50 (Phospho-Rb (Ser807/811)),DC50 (GSPT1),Dmax (GSPT1),DC50 (Cyclin E1),Dmax (Cyclin E1),Ratio of GSPT1 DC50/Cyclin E1 DC50 (Cyclin E1),Emax (Phospho-Rb (Ser807/811))
"CC(C)(O)COc1c(COC(=O)Nc2ccc(Oc3ccccc3)cc2)ccc2c1C(=O)N(C1CCC(=O)NC1=O)C2 (centres unmarked) [Example 160, [2-(2,6-dioxopiperidin-3-yl)-4-(2-hydroxy-2-methylpropoxy)-3-oxo-2,3-dihydro-1H-isoindol-5-yl]methyl N-(4-phenoxyphenyl)carbamate]",131 nM,> 14000 nM,16%,23 nM,98%,>615,145%
"O=C1CCC(N2Cc3ccc(COC(=O)Nc4ccc(Oc5ccc(F)c(F)c5)cc4)c(O[C@H]4CC[C@@H](O)CC4)c3C2=O)C(=O)N1 (stereo partly drawn) [Example 167, [2-(2,6-dioxopiperidin-3-yl)-3-oxo-4-{[(1S,4S)-4-hydroxycyclohexyl]oxy}-2,3-dihydro-1H-isoindol-5-yl]methyl N-[4-(3,4-difluorophenoxy)phenyl]carbamate]",8 nM,> 14000 nM,6%,13 nM,111%,">1,042",148%
"O=C1CCC(N2Cc3ccc(COC(=O)Nc4ccc(Oc5ccccc5F)cc4)c(Oc4ccccc4)c3C2=O)C(=O)N1 (centres unmarked) [Example 65, [2-(2,6-dioxopiperidin-3-yl)-3-oxo-4-phenoxy-2,3-dihydro-1H-isoindol-5-yl]methyl N-[4-(2-fluorophenoxy)phenyl]carbamate]",59 nM,> 14000 nM,0%,164 nM,101%,>85,127%
"O=C1CCC(N2Cc3ccc(COC(=O)Nc4ccc(Oc5ccc(F)c(F)c5)cc4)c(OC4CCCC4)c3C2=O)C(=O)N1 (centres unmarked) [Example 151, [4-(cyclopentyloxy)-2-(2,6-dioxopiperidin-3-yl)-3-oxo-2,3-dihydro-1H-isoindol-5-yl]methyl N-[4-(3,4-difluorophenoxy)phenyl]carbamate]",31 nM,> 14000 nM,10%,71 nM,108%,>196,113%
"CC(C)(O)COc1c(COC(=O)Nc2ccc(Oc3ccc(F)cc3F)cc2F)ccc2c1C(=O)N(C1CCC(=O)NC1=O)C2 (centres unmarked) [Example 163, [2-(2,6-dioxopiperidin-3-yl)-4-(2-hydroxy-2-methylpropoxy)-3-oxo-2,3-dihydro-1H-isoindol-5-yl]methyl N-[4-(2,4-difluorophenoxy)-2-fluorophenyl]carbamate]",112 nM,> 14000 nM,7%,15 nM,110%,>921,137%
"COc1c(COC(=O)Nc2ccc(Oc3c(F)cccc3F)cc2)ccc2c1C(=O)N(C1CCC(=O)NC1=O)C2 (centres unmarked) [Example 112, [2-(2,6-dioxopiperidin-3-yl)-4-methoxy-3-oxo-2,3-dihydro-1H-isoindol-5-yl]methyl N-[4-(2,6-difluorophenoxy)phenyl]carbamate]",46 nM,> 14000 nM,26%,226 nM,105%,>62,115%
"CCN(C)C(=O)COc1c(COC(=O)Nc2ccc(Oc3ccc(F)c(F)c3)cc2)ccc2c1C(=O)N(C1CCC(=O)NC1=O)C2 (centres unmarked) [Example 177, [2-(2,6-dioxopiperidin-3-yl)-4-{[ethyl(methyl)carbamoyl]methoxy}-3-oxo-2,3-dihydro-1H-isoindol-5-yl]methyl N-[4-(3,4-difluorophenoxy)phenyl]carbamate]",161 nM,> 14000 nM,0%,299 nM,108%,>47,126%
"COc1c(COC(=O)Nc2ccc(Cc3cc(F)c(F)c(F)c3)cc2)ccc2c1C(=O)N(C1CCC(=O)NC1=O)C2 (centres unmarked) [Example 19, [2-(2,6-dioxopiperidin-3-yl)-4-methoxy-3-oxo-2,3-dihydro-1H-isoindol-5-yl]methyl N-{4-[(3,4,5-trifluorophenyl)methyl]phenyl}carbamate]",701 nM,> 14000 nM,9%,146 nM,105%,>96,92%
"O=C1CCC(N2Cc3ccc(COC(=O)Nc4ccc(Oc5ccc(F)c(F)c5)cc4)c(O[C@H]4CCOC4)c3C2=O)C(=O)N1 (stereo partly drawn) [Example 152, [2-(2,6-dioxopiperidin-3-yl)-3-oxo-4-[(3S)-oxolan-3-yloxy]-2,3-dihydro-1H-isoindol-5-yl]methyl N-[4-(3,4-difluorophenoxy)phenyl]carbamate]",152 nM,> 14000 nM,32%,152 nM,108%,>92,120%
"O=C1CCC(N2Cc3ccc(COC(=O)Nc4ccc(Oc5ccc(F)c(F)c5)cc4)c(Oc4ccccc4)c3C2=O)C(=O)N1 (centres unmarked) [Example 63, [2-(2,6-dioxopiperidin-3-yl)-3-oxo-4-phenoxy-2,3-dihydro-1H-isoindol-5-yl]methyl N-[4-(3,4-difluorophenoxy)phenyl]carbamate]",136 nM,> 14000 nM,41%,113 nM,104%,>124,121%
"O=C1CCC(N2Cc3ccc(COC(=O)Nc4ccc(Oc5ccccc5)cc4)c(OC4CCOCC4)c3C2=O)C(=O)N1 (centres unmarked) [Example 134, [2-(2,6-dioxopiperidin-3-yl)-4-(oxan-4-yloxy)-3-oxo-2,3-dihydro-1H-isoindol-5-yl]methyl N-(4-phenoxyphenyl)carbamate]",14 nM,> 14000 nM,0%,13 nM,107%,">1,066",144%
"O=C1CCC(N2Cc3ccc(COC(=O)Nc4ccc(Oc5cc(F)cc(F)c5)cc4F)c(O[C@@H]4CCCOC4)c3C2=O)C(=O)N1 (stereo partly drawn) [Example 149, [2-(2,6-dioxopiperidin-3-yl)-4-[(3R)-oxan-3-yloxy]-3-oxo-2,3-dihydro-1H-isoindol-5-yl]methyl N-[4-(3,5-difluorophenoxy)-2-fluorophenyl]carbamate]",71 nM,> 14000 nM,15%,67 nM,109%,>209,144%

# More lines, main results first:
IC50 (Phospho-Rb (Ser807/811)),DC50 (GSPT1),Dmax (GSPT1),DC50 (Cyclin E1),Dmax (Cyclin E1),Ratio of GSPT1 DC50/Cyclin E1 DC50 (Cyclin E1),Compound,Emax (Phospho-Rb (Ser807/811))
100 nM,> 14000 nM,45%,110 nM,103%,>127,"COc1c(COC(=O)Nc2ccc(Oc3ccc(F)cc3)cc2F)ccc2c1C(=O)N(C1CCC(=O)NC1=O)C2 (centres unmarked) [Example 28, [2-(2,6-dioxopiperidin-3-yl)-4-methoxy-3-oxo-2,3-dihydro-1H-isoindol-5-yl]methyl N-[2-fluoro-4-(4-fluorophenoxy)phenyl]carbamate]",106%
33 nM,> 14000 nM,50%,52 nM,107%,>268,"COc1c(COC(=O)Nc2ccc(Oc3ccc(F)cc3Cl)cc2F)ccc2c1C(=O)N(C1CCC(=O)NC1=O)C2 (centres unmarked) [Example 105, [2-(2,6-dioxopiperidin-3-yl)-4-methoxy-3-oxo-2,3-dihydro-1H-isoindol-5-yl]methyl N-[4-(2-chloro-4-fluorophenoxy)-2-fluorophenyl]carbamate]",120%
442 nM,> 14000 nM,31%,672 nM,103%,>21,"COc1c(COC(=O)Nc2ccc(Oc3ccc(F)cc3F)cc2F)ccc2c1C(=O)N(C1CCC(=O)NC1=O)C2 (centres unmarked) [Example 30, [2-(2,6-dioxopiperidin-3-yl)-4-methoxy-3-oxo-2,3-dihydro-1H-isoindol-5-yl]methyl N-[4-(2,4-difluorophenoxy)-2-fluorophenyl]carbamate]",107%
92 nM,> 14000 nM,28%,97 nM,109%,>144,"COc1c(COC(=O)Nc2ccc(Oc3ccc(F)c(Cl)c3)cc2F)ccc2c1C(=O)N(C1CCC(=O)NC1=O)C2 (centres unmarked) [Example 98, [2-(2,6-dioxopiperidin-3-yl)-4-methoxy-3-oxo-2,3-dihydro-1H-isoindol-5-yl]methyl N-[4-(3-chloro-4-fluorophenoxy)-2-fluorophenyl]carbamate]",106%
63 nM,> 14000 nM,36%,274 nM,110%,>51,"COc1c(COC(=O)Nc2ccc(Oc3ccc(F)cc3C)cc2F)ccc2c1C(=O)N(C1CCC(=O)NC1=O)C2 (centres unmarked) [Example 95, [2-(2,6-dioxopiperidin-3-yl)-4-methoxy-3-oxo-2,3-dihydro-1H-isoindol-5-yl]methyl N-[2-fluoro-4-(4-fluoro-2-methylphenoxy)phenyl]carbamate]",125%
